1 compound from patent US20260198495A1, “BINARY INSECTICIDE COMPOSITION AND USE THEREOF” (SHENYANG SINOCHEM AGROCHEMICALS R & D CO., LTD., priority 2022, published 2026) can be followed below.

A word on the LC50: it is the concentration lethal to half of the exposed cells or organisms. Usually mortality stands for the percentage killed.

Holding throughout (format): in vivo
In experiment [1] the test system is 3rd-instar larvae of Ostrinia furnacalis Guenee. In words: Joint toxicity of I-72 + lambda-cyhalothrin, Example 42, Table 42. To be noted: A = compound I-72, B = lambda-cyhalothrin, corn stem dipping, 72 hours, read-out: LC50. The protocol:
Test target: 3rd-instar larvae of Ostrinia furnacalis Guenee.
(§1) Preparation of the pesticide solution: according to different test requirements, the test samples were accurately weighed respectively with an electronic analytical balance. The technical pesticides were dissolved in acetone, and then diluted with 0.1% Tween 80 water into a series of pesticide solutions with a certain concentration gradient according to the experimental design dosage.
Experimental method: first, tender corn stems were selected and dipped in the prepared pesticide solution for 10 s in the order from low dosage to high dosage according to the experimental design. After natural air-drying in the shade, they were placed in a 9-cm-diameter Petri dish with filter paper, and uniform and healthy test insects were introduced, with 10 insects for each treatment and 3 replicates for each treatment. In addition, a blank control was set up.
(§2) The treated test materials were placed in an observation room, and the temperature, humidity and illumination of the observation room could be adjusted as needed. The number of dead and live insects was investigated 72 hours later. […] Then, the co-toxicity coefficient of each ratio was calculated using the Sun Y-P method to evaluate the mixing effect (the same as in Example 1).

In a further experiment the test system is Aphis craccivora nymphs. The experiment can be described thus: Synergism screening (Bliss) of I-72 + pyrethroid insecticides, Example 38, Table 38. To be noted: Aphis craccivora, single pesticide, broad bean seedling spraying, 48 hours, read-out: Measured mortality rate (%). The protocol: Test target: Aphis craccivora nymphs, a sensitive strain reared indoors.
as §1
Experimental method: first, broad bean seedlings with uniform and consistent Aphis craccivora were selected, with about 30-40 insects on each seedling. Then, they were evenly sprayed with the pesticide solution in the order from low dosage to high dosage according to the experimental design, with 1.5 mL of the solution for each leaf and 3 replicates for each treatment. In addition, a blank control (CK) was set up.
The treated test materials were placed in an observation room, and the temperature, humidity and illumination of the observation room could be adjusted as needed. The number of dead and alive insects was investigated 48 hours later, and the corrected mortality rate was calculated using the Abbott's formula.
The synergism of the mixture was evaluated by adopting the Bliss method, as in Example 5.

For experiment [2], the system named is 3rd-instar larvae of Chilo suppressalis (Walker). In words: Joint toxicity of I-72 + chlorantraniliprole, Example 57, Table 57. To be noted: A = compound I-72, B = chlorantraniliprole, rice stem dipping, 72 hours, read-out: LC50. How it is done:
Test target: 3rd-instar larvae of Chilo suppressalis (Walker).
as §1
Experimental method: first, tender rice stems were selected and dipped in the prepared pesticide solution for 10 s in the order from low dosage to high dosage according to the experimental design. After natural air-drying in the shade, they were placed in a 9-cm-diameter Petri dish with filter paper, and uniform and healthy test insects were introduced, with 10 insects for each treatment and 3 replicates for each treatment. In addition, a blank control (CK) was set up.
The treated test materials were placed in an observation room, and the temperature, humidity and illumination of the observation room could be adjusted as needed. The number of dead and live insects was investigated 72 hours later. […] Then, the co-toxicity coefficient of each ratio was calculated using the Sun Y-P method to evaluate the mixing effect, as in Example 1.

In experiment [3] the test system is Frankliniella occidentalis Pergande. In words: Joint toxicity of I-72 + organophosphorus insecticides, leaf dipping, Example 14, Table 14. To be noted: foliar, kidney bean leaf dipping, 48 h, A = compound I-72, B = triazophos, read-out: LC50.
Text: Test target: Frankliniella occidentalis Pergande, a sensitive strain reared indoors.
Experimental method: first, kidney bean leaves were selected and dipped in the prepared pesticide solution for 10 s in the order from low dosage to high dosage according to the experimental design. After natural air-drying in the shade, they were placed in a 9-cm-diameter Petri dish with filter paper, and uniform and healthy test insects were introduced, with about 20 insects for each treatment and 3 replicates for each treatment. In addition, a blank control was set up.
The subject of experiment [4] is Myzus persicae (Sulzer) nymphs. In words: Joint toxicity of I-72 + pymetrozine, Example 73, Table 73. Particulars: A = compound I-72, B = pymetrozine, cabbage leaf spraying, 48 hours, read-out: LC50. The protocol: (§3) Test target: Myzus persicae (Sulzer) nymphs, a sensitive strain reared indoors.
as §1
(§4) Experimental method: first, cabbage leaves with uniform and consistent Myzus persicae (Sulzer) were selected, with about 30-40 insects on each leaf. Then, they were evenly sprayed with the pesticide solution in the order from low dosage to high dosage according to the experimental design, with 1.5 mL of the solution for each leaf and 3 replicates for each treatment. In addition, a blank control was set up.
The treated test materials were placed in an observation room, and the temperature, humidity and illumination of the observation room could be adjusted as needed. The number of dead and live insects was investigated 48 hours later. […] Then, the co-toxicity coefficient of each ratio was calculated using the Sun Y-P method to evaluate the mixing effect, as in Example 1.

The test system of experiment [5] is adult Phyllotreta vittuta Fabr. The experiment can be described thus: Joint toxicity of I-72 + cyantraniliprole, Example 63, Table 63. To be noted: A = compound I-72, B = cyantraniliprole; potted cabbage seedling spraying; 72 hours; read-out: LC50. How it is done: Test target: adult Phyllotreta vittuta Fabr.
as §1
Experimental method: first, uniform and consistent potted cabbage seedlings were selected. Then, uniform spraying was performed with the pesticide solution in the order from low dosage to high dosage according to the experimental design. After air-drying in the shade, adult flea beetles were transferred onto the treated cabbage seedlings, and then glass covers were put on them, with about 30-40 adult flea beetles on each seedling and 3 replicates for each treatment. In addition, a blank control was set up.
as §2

In experiment [6] the test system is Myzus persicae (Sulzer) nymphs. In words: Joint toxicity of I-72 + fenvalerate, Example 46, Table 46. Particulars: A = compound I-72, B = fenvalerate, cabbage leaf spraying, 48 hours, read-out: LC50. How it is done:
as §3, §1, §4
The treated test materials were placed in an observation room, and the temperature, humidity and illumination of the observation room could be adjusted as needed. The number of dead and live insects was investigated 48 hours later. […] Then, the co-toxicity coefficient of each ratio was calculated using the Sun Y-P method to evaluate the mixing effect (the same as in Example 1).

As to `CN(C(=O)c1ccc2c(c1)OC(F)(F)O2)c1cccc(C(=O)Nc2c(Br)cc(C(F)(C(F)(F)F)C(F)(F)F)cc2OC(F)F)c1F` [Compound I-72], the LC50 in experiment [1] was 0.805 µg/mL; in experiment [2] it was 1.05 µg/mL; in experiment [3], 3.13 µg/mL; in experiment [4], 7.96 µg/mL; in experiment [5], 1.16 µg/mL; in experiment [6] it was 8.2 µg/mL. For the same compound, the mortality at 0.1 µg/mL in the experiment with Aphis craccivora nymphs (concentration 0.1 mg/L) was 11.9%. The mortality at 3 µg/mL with Aphis craccivora nymphs (concentration 3 mg/L) was determined as 60.6%.
